Reference: the supplement of paper PMC10307832

What was measured:
Assay in all cases: relative viability (nuclei count vs DMSO), 5 days (fraction); higher = more cells survive
[1] = compound: C1=CC2=C(C=C(C(=C2N=C1)O)N=NC3=CC4=C(C=C3)C=C(C=C4)S(=O)(=O)O)S(=O)(=O)O + CC(=O)Nc1cccc(-n2c(=O)n(C3CC3)c(=O)c3c(Nc4ccc(I)cc4F)n(C)c(=O)c(C)c32)c1 [Trametinib] (partner 0.02 µM)
Procedure, shortened: (§1)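 Cells from lung cancer lines were seeded into 1536-well plates and, one day later, dosed by pin tool. Treatments were either a single drug or a fixed dose of an anchor drug with five library-drug doses (not always all listed) in √10 steps. After 5 days, nuclei were stained in a one-step fixation (final 0.05% Triton X-100, 1% formaldehyde, 1 ug/ml Hoechst) and counted on 4× images, and relative viability is the treated-to-vehicle nuclei ratio, as the median of duplicate plates.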

[2] = compound: C1=CC2=C(C=C(C(=C2N=C1)O)N=NC3=CC4=C(C=C3)C=C(C=C4)S(=O)(=O)O)S(=O)(=O)O + C[C@]1(O)C[C@@H](c2nc(-c3ccc4ccc(-c5ccccc5)nc4c3)c3c(N)nccn32)C1 [Linsitinib] (partner 1 µM)
Procedure, shortened: as §1

[3] = compound: C1=CC2=C(C=C(C(=C2N=C1)O)N=NC3=CC4=C(C=C3)C=C(C=C4)S(=O)(=O)O)S(=O)(=O)O + CC(=O)c1c(C)c2cnc(Nc3ccc(N4CCNCC4)cn3)nc2n(C2CCCC2)c1=O [Palbociclib] (partner 0.5 µM)
Procedure, shortened: as §1

[4] = compound: C1=CC2=C(C=C(C(=C2N=C1)O)N=NC3=CC4=C(C=C3)C=C(C=C4)S(=O)(=O)O)S(=O)(=O)O + CC1(C)CCC(c2ccc(Cl)cc2)=C(CN2CCN(c3ccc(C(=O)NS(=O)(=O)c4ccc(N[C@H](CCN5CCOCC5)CSc5ccccc5)c(S(=O)(=O)C(F)(F)F)c4)cc3)CC2)C1 [Navitoclax] (partner 0.5 µM)
Procedure, shortened: as §1

| Cell Line | relative viability ([1]; first compound 0.08 µM) | relative viability ([1]; first compound 0.253 µM) | relative viability ([1]; first compound 0.8 µM) | relative viability ([1]; first compound 2.53 µM) | relative viability ([1]; first compound 8 µM) | relative viability ([2]; first compound 0.08 µM) | relative viability ([2]; first compound 0.253 µM) | relative viability ([2]; first compound 0.8 µM) | relative viability ([2]; first compound 2.53 µM) | relative viability ([2]; first compound 8 µM) | relative viability ([3]; first compound 0.08 µM) | relative viability ([3]; first compound 0.253 µM) | relative viability ([3]; first compound 0.8 µM) | relative viability ([3]; first compound 2.53 µM) | relative viability ([3]; first compound 8 µM) | relative viability ([4]; first compound 0.08 µM) | relative viability ([4]; first compound 0.253 µM) | relative viability ([4]; first compound 0.8 µM) | relative viability ([4]; first compound 2.53 µM) | relative viability ([4]; first compound 8 µM) |
| --- | --- | --- | --- | --- | --- | --- | --- | --- | --- | --- | --- | --- | --- | --- | --- | --- | --- | --- | --- | --- |
| HCC-78 | 0.804 | 0.724 | 0.813 | 0.712 | 0.675 | 0.614 | 0.543 | 0.496 | 0.469 | 0.399 | 0.566 | 0.463 | 0.505 | 0.45 | 0.466 | 0.776 | 0.667 | 0.879 | 0.826 | 0.757 |
| HCC-366 | 0.402 | 0.342 | 0.398 | 0.432 | 0.302 | 0.557 | 0.578 | 0.678 | 0.603 | 0.648 | 0.459 | 0.385 | 0.377 | 0.391 | 0.325 | 1.07 | 0.839 | 0.977 | 1.07 | 1.07 |
| HCC-827 | 0.505 | 0.521 | 0.524 | 0.524 | 0.578 | 1.01 | 0.912 | 0.934 | 0.935 | 0.927 | 0.537 | 0.451 | 0.492 | 0.455 | 0.542 | 1 | 0.977 | 0.995 | 1.03 | 1 |
| HOP-62 | 0.428 | 0.392 | 0.452 | 0.37 | 0.359 | 0.992 | 0.893 | 1.01 | 1 | 0.926 | 0.481 | 0.423 | 0.42 | 0.513 | 0.499 | 1.1 | 1.03 | 1.12 | 1.07 | 1.1 |
| IA-LM |  |  |  |  |  | 0.822 | 0.68 | 0.472 | 0.755 | 0.568 |  |  |  |  |  | 0.769 | 0.885 | 0.819 | 0.75 | 0.694 |
| LC-2-ad | 0.932 | 0.851 | 0.941 | 0.892 | 0.98 | 0.623 | 0.839 | 0.861 | 0.805 | 0.918 | 0.573 | 0.493 | 0.499 | 0.493 | 0.528 | 0.516 | 0.517 | 0.507 | 0.402 | 0.521 |
| LCLC-97TM1 | 0.197 | 0.183 | 0.191 | 0.182 | 0.15 |  | 0.194 |  | 0.196 | 0.18 | 0.236 | 0.258 | 0.189 | 0.222 | 0.257 |  | 0.224 |  | 0.509 | 0.41 |
| LCLC-103H | 0.661 | 0.706 | 0.658 | 0.667 | 0.675 | 1.2 | 1.04 | 1 | 1.15 | 1.09 | 0.457 | 0.465 | 0.484 | 0.487 | 0.433 |  |  |  |  |  |
| LK-2 | 0.795 | 0.602 | 0.607 | 0.776 | 0.552 | 0.797 | 0.724 | 0.551 | 0.573 | 0.472 | 0.768 | 0.529 | 0.626 | 0.77 | 0.721 | 1.01 | 0.797 | 0.888 | 0.79 | 0.687 |
| NCI-H358 | 0.158 | 0.128 | 0.142 | 0.136 | 0.144 | 0.796 | 0.682 | 0.724 | 0.74 | 0.336 | 0.138 | 0.134 | 0.166 | 0.134 | 0.135 |  |  |  |  |  |
| NCI-H522 | 0.494 | 0.676 | 0.748 | 0.791 | 0.894 |  |  |  |  |  | 0.957 | 0.981 | 0.934 | 0.849 | 0.923 |  |  |  |  |  |
| NCI-H596 | 0.939 | 0.751 | 0.77 | 0.795 | 0.681 | 1.02 | 1.07 | 1.1 | 1.14 | 1.15 |  |  |  |  |  | 0.946 | 0.973 | 1.06 | 0.964 | 1.01 |
| NCI-H650 | 0.947 | 0.947 | 0.875 | 0.948 | 0.894 | 0.652 | 0.755 | 0.884 | 0.769 | 0.576 | 0.35 | 0.357 | 0.335 | 0.317 | 0.335 |  |  |  |  |  |
| NCI-H661 | 0.627 | 0.532 | 0.568 | 0.625 | 0.613 | 0.74 | 0.57 | 0.489 | 0.498 | 0.512 | 0.4 | 0.407 | 0.44 | 0.443 | 0.421 |  |  |  |  |  |
| NCI-H1299 |  |  |  |  |  | 1.04 | 0.98 | 0.937 | 0.955 | 0.986 |  |  |  |  |  | 1.09 | 1.05 | 0.976 | 1.08 | 1.06 |
| NCI-H1563 |  |  |  |  |  | 1.35 | 1.16 | 1.29 | 1.28 | 1.21 |  |  |  |  |  |  |  |  |  |  |
| NCI-H1648 |  | 0.57 |  |  | 0.59 |  |  |  |  |  |  | 0.29 |  |  | 0.301 |  |  |  |  |  |
| NCI-H1650 | 0.672 | 0.547 | 0.512 | 0.682 | 0.433 |  |  |  |  |  | 0.369 | 0.302 | 0.301 | 0.328 | 0.308 | 1.36 | 1.27 | 1.28 | 1.2 | 1.12 |
| NCI-H1703 |  |  |  |  |  | 0.865 |  | 0.821 | 0.371 | 0.959 |  |  |  |  |  | 1.02 | 1.16 | 1.12 | 1.27 | 1.13 |
| NCI-H2170 | 1.06 | 0.856 | 0.83 | 0.984 | 0.927 |  |  |  |  |  | 0.469 | 0.401 | 0.393 | 0.438 | 0.402 | 0.628 | 0.477 | 0.544 | 0.637 | 0.707 |
| NCI-H2342 | 0.82 | 0.884 | 0.943 | 0.808 | 0.764 |  |  |  |  |  | 0.576 | 0.538 | 0.532 | 0.6 | 0.542 |  |  |  |  |  |
| SW 900 | 0.873 | 0.764 | 0.699 | 0.968 | 0.821 |  |  |  |  |  | 0.53 | 0.58 | 0.477 | 0.648 | 0.579 |  |  |  |  |  |
